In PubChem BioAssay AID330 (DTP/NCI, 2004):
“And” between values parts separate entries of the source, which are not always exact repeats. Equal entries are not always repeated. Toxic doses and inconclusive results are not listed.

Tested on: P388 leukemia ip, CD2F1 mice, survival T/C
Test: NCI In Vivo Anticancer Drug Screen. Data for tumor model P388 Leukemia (intraperitoneal) in CD2F1 (CDF1) mice
Conditions: endpoint: median survival time, higher = longer survival
Method in brief: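 Mice carrying the transplanted tumor received test compound or vehicle. Survival was recorded in each group, and the value is the treated-group measurement divided by that of the vehicle-treated control group.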

[1] = dose: 50.0 mg/kg/injection, schedule: Q01DX009 (ip), vehicle: Klucel (hydroxypropylcellulose) (HPC)
[2] = dose: 100.0 mg/kg/injection, schedule: Q01DX009 (ip), vehicle: Klucel (hydroxypropylcellulose) (HPC)
[3] = dose: 200.0 mg/kg/injection, schedule: Q01DX009 (ip), vehicle: Klucel (hydroxypropylcellulose) (HPC)
[4] = dose: 50.0 mg/kg/injection, schedule: Q01DX005 (ip), vehicle: Klucel (hydroxypropylcellulose) (HPC)
[5] = dose: 100.0 mg/kg/injection, schedule: Q01DX005 (ip), vehicle: Klucel (hydroxypropylcellulose) (HPC)
[6] = dose: 200.0 mg/kg/injection, schedule: Q01DX005 (ip), vehicle: Klucel (hydroxypropylcellulose) (HPC)
[7] = dose: 50.0 mg/kg/injection, schedule: Q01DX005 (ip), vehicle: saline with Tween-80
[8] = dose: 100.0 mg/kg/injection, schedule: Q01DX005 (ip), vehicle: saline with Tween-80
[9] = dose: 200.0 mg/kg/injection, schedule: Q01DX005 (ip), vehicle: saline with Tween-80
[10] = dose: 50.0 mg/kg/injection, schedule: Q01DX009 (ip), vehicle: saline with Tween-80
[11] = dose: 100.0 mg/kg/injection, schedule: Q01DX009 (ip), vehicle: saline with Tween-80
[12] = dose: 200.0 mg/kg/injection, schedule: Q01DX009 (ip), vehicle: saline with Tween-80
[13] = dose: 100.0 mg/kg/injection, schedule: Q01DX009 (ip), vehicle: saline
[14] = dose: 100.0 mg/kg/injection, schedule: Q04DX003 (ip), vehicle: saline
[15] = dose: 200.0 mg/kg/injection, schedule: Q04DX003 (ip), vehicle: saline
[16] = dose: 400.0 mg/kg/injection, schedule: Q04DX003 (ip), vehicle: saline

COc1cccc2c1C(=O)c1c(O)c3c(c(O)c1C2=O)CC(O)(C(C)=O)CC3OC1CC(NCC2(O)OCC(O)C2O)C(O)C(C)O1 (centres undefined)
T/C (dose: 3.13 mg/kg/injection, schedule: Q04DX003 (ip), vehicle: water): 103 % of control | T/C (dose: 6.25 mg/kg/injection, schedule: Q04DX003 (ip), vehicle: water): 100 % of control | T/C (dose: 12.5 mg/kg/injection, schedule: Q04DX003 (ip), vehicle: water): 117 % of control | T/C (dose: 25.0 mg/kg/injection, schedule: Q04DX003 (ip), vehicle: water): 112 % of control and 113 % of control | T/C (dose: 50.0 mg/kg/injection, schedule: Q04DX003 (ip), vehicle: water): 122 % of control | T/C (dose: 100.0 mg/kg/injection, schedule: Q04DX003 (ip), vehicle: water): 182 % of control | T/C (dose: 200.0 mg/kg/injection, schedule: Q04DX003 (ip), vehicle: water): 108 % of control

CCOc1cc(/C=N\NC(=O)C(=O)N/N=C\c2ccc(O)c(OCC)c2)ccc1O
T/C [1]: 96 % of control | T/C [2]: 94 % of control | T/C [3]: 94 % of control

COc1ccc2nc3ccccc3c(NCCCCCCCCNc3c4ccccc4nc4ccc(OC)cc34)c2c1
T/C (dose: 0.63 mg/kg/injection, schedule: Q01DX009 (ip), vehicle: other): 113 % of control | T/C (dose: 1.25 mg/kg/injection, schedule: Q01DX009 (ip), vehicle: other): 109 % of control | T/C (dose: 2.5 mg/kg/injection, schedule: Q01DX009 (ip), vehicle: other): 104 % of control | T/C (dose: 3.75 mg/kg/injection, schedule: Q01DX009 (ip), vehicle: other): 109 % of control | T/C (dose: 5.0 mg/kg/injection, schedule: Q01DX009 (ip), vehicle: other): 113 % of control | T/C (dose: 7.5 mg/kg/injection, schedule: Q01DX009 (ip), vehicle: other): 120 % of control

CCOC(=O)N1C(C)C2C=CC1C(S(=O)(=O)c1ccccc1)C2 (centres undefined)
T/C [4]: 97 % of control | T/C [5]: 102 % of control | T/C [6]: 97 % of control

CC(C)CC([NH-])C(=O)O.CC(C)CC([NH-])C(=O)O.CC(C)CC([NH-])C(=O)O.[Pr+3] (centres undefined)
T/C [4]: 107 % of control | T/C [5]: 102 % of control | T/C [6]: 98 % of control

COc1ccc(N2C(=O)CCSC23C(=O)N(CN2CCOCC2)c2ccccc23)cc1 (centres undefined)
T/C [7]: 103 % of control | T/C [8]: 106 % of control | T/C [9]: 95 % of control

CSC(=S)NC#N
T/C (dose: 25.0 mg/kg/injection, schedule: Q01DX009 (ip), vehicle: saline with Tween-80): 111 % of control | T/C [10]: 100 % of control | T/C [11]: 107 % of control | T/C [12]: 108 % of control

CCCCCCCC/C=C/CCCCCCCCCCCCBr
T/C [13]: 90 % of control | T/C [14]: 95 % of control | T/C (dose: 200.0 mg/kg/injection, schedule: Q01DX009 (ip), vehicle: saline): 104 % of control | T/C [15]: 95 % of control | T/C (dose: 400.0 mg/kg/injection, schedule: Q01DX009 (ip), vehicle: saline): 100 % of control | T/C [16]: 100 % of control

CN(C)NCCCCCNN(C)C
T/C [4]: 100 % of control | T/C [5]: 102 % of control | T/C [6]: 102 % of control

NC(=S)n1nc(-c2ccccc2)c(N=Nc2cc(Cl)ccc2Cl)c1-c1ccccc1
T/C (dose: 100.0 mg/kg/injection, schedule: Q04DX002 (ip), vehicle: saline with Tween-80): 89 % of control | T/C (dose: 200.0 mg/kg/injection, schedule: Q04DX002 (ip), vehicle: saline with Tween-80): 90 % of control | T/C (dose: 400.0 mg/kg/injection, schedule: Q04DX002 (ip), vehicle: saline with Tween-80): 110 % of control

Cc1c[nH]c(=O)cn1
T/C (dose: 100.0 mg/kg/injection, schedule: Q04DX003 (ip), vehicle: Klucel (hydroxypropylcellulose) (HPC)): 95 % of control | T/C (dose: 200.0 mg/kg/injection, schedule: Q04DX003 (ip), vehicle: Klucel (hydroxypropylcellulose) (HPC)): 90 % of control | T/C (dose: 400.0 mg/kg/injection, schedule: Q04DX003 (ip), vehicle: Klucel (hydroxypropylcellulose) (HPC)): 95 % of control

COc1ccc(CCC#N)cc1OC
T/C (dose: 25.0 mg/kg/injection, schedule: Q01DX009 (ip), vehicle: other): 104 % of control | T/C (dose: 50.0 mg/kg/injection, schedule: Q01DX009 (ip), vehicle: other): 105 % of control | T/C (dose: 100.0 mg/kg/injection, schedule: Q01DX009 (ip), vehicle: other): 100 % of control | T/C (dose: 200.0 mg/kg/injection, schedule: Q01DX009 (ip), vehicle: other): 110 % of control

Cc1ccccc1NC(=O)OCC(CCl)(CCl)CCl
T/C (dose: 100.0 mg/kg/injection, schedule: Q04DX002 (ip), vehicle: Klucel (hydroxypropylcellulose) (HPC)): 99 % of control | T/C (dose: 200.0 mg/kg/injection, schedule: Q04DX002 (ip), vehicle: Klucel (hydroxypropylcellulose) (HPC)): 96 % of control | T/C (dose: 400.0 mg/kg/injection, schedule: Q04DX002 (ip), vehicle: Klucel (hydroxypropylcellulose) (HPC)): 89 % of control

Clc1ccc(CSCc2c(CSCc3ccc(Cl)cc3)c(CSCc3ccc(Cl)cc3)c(CSCc3ccc(Cl)cc3)c(CSCc3ccc(Cl)cc3)c2CSCc2ccc(Cl)cc2)cc1
T/C [10]: 102 % of control | T/C [11]: 102 % of control | T/C [12]: 99 % of control

CCC1=NO[C@@H](C)[C@H]1C(=O)OCc1ccccc1
T/C (dose: 60.0 mg/kg/injection, schedule: Q01DX005 (ip), vehicle: saline with Tween-80): 106 % of control | T/C (dose: 120.0 mg/kg/injection, schedule: Q01DX005 (ip), vehicle: saline with Tween-80): 100 % of control | T/C (dose: 240.0 mg/kg/injection, schedule: Q01DX005 (ip), vehicle: saline with Tween-80): 97 % of control

CC(N=Cc1cccs1)c1ccccc1 (centres undefined)
T/C [14]: 98 % of control | T/C [15]: 95 % of control | T/C [16]: 99 % of control

O=C(O)CC12CC3CC(CC(C3)C1)C2
T/C [1]: 102 % of control | T/C [2]: 103 % of control | T/C [3]: 102 % of control

O=C1CNC(=O)C(O)N1 (centres undefined)
T/C [7]: 93 % of control | T/C [8]: 100 % of control | T/C [9]: 97 % of control

CCOC(=O)Cc1nnc(N)s1
T/C (dose: 50.0 mg/kg/injection, schedule: Q04DX003 (ip), vehicle: saline): 94 % of control | T/C [14]: 95 % of control | T/C [15]: 110 % of control | T/C [16]: 104 % of control

FC(F)(F)C1(C(F)(F)F)N=CC=CN1
T/C (dose: 50.0 mg/kg/injection, schedule: Q01DX009 (ip), vehicle: distilled water + alcohol): 101 % of control | T/C (dose: 100.0 mg/kg/injection, schedule: Q01DX009 (ip), vehicle: distilled water + alcohol): 95 % of control

CCOC(=O)c1cnc2ccccn2c1=O
T/C (dose: 50.0 mg/kg/injection, schedule: Q01DX009 (ip), vehicle: saline): 90 % of control | T/C [13]: 88 % of control

CC(=O)Oc1cc2c3c(c1)-c1c(ccc(OC(C)=O)c1OC(C)=O)CC3NCC2 (centres undefined)
T/C (dose: 3.13 mg/kg/injection, schedule: Q04DX003 (ip), vehicle: DMSO): 101 % of control | T/C (dose: 6.25 mg/kg/injection, schedule: Q04DX003 (ip), vehicle: DMSO): 101 % of control | T/C (dose: 12.5 mg/kg/injection, schedule: Q04DX003 (ip), vehicle: DMSO): 103 % of control | T/C (dose: 25.0 mg/kg/injection, schedule: Q04DX003 (ip), vehicle: DMSO): 108 % of control | T/C (dose: 50.0 mg/kg/injection, schedule: Q04DX003 (ip), vehicle: DMSO): 108 % of control | T/C (dose: 100.0 mg/kg/injection, schedule: Q04DX003 (ip), vehicle: DMSO): 99 % of control

Cc1ccc(C(=O)n2c(Br)c(/C=N/NC(N)=S)c3ccccc32)cc1
T/C (dose: 100.0 mg/kg/injection, schedule: Q01DX001 (ip), vehicle: Klucel (hydroxypropylcellulose) (HPC)): 100 % of control | T/C (dose: 200.0 mg/kg/injection, schedule: Q01DX001 (ip), vehicle: Klucel (hydroxypropylcellulose) (HPC)): 100 % of control | T/C (dose: 400.0 mg/kg/injection, schedule: Q01DX001 (ip), vehicle: Klucel (hydroxypropylcellulose) (HPC)): 95 % of control

CCOC1CC2CCCN2O1 (centres undefined)
T/C (dose: 75.0 mg/kg/injection, schedule: Q01DX009 (ip), vehicle: saline): 103 % of control | T/C (dose: 150.0 mg/kg/injection, schedule: Q01DX009 (ip), vehicle: saline): 100 % of control | T/C (dose: 300.0 mg/kg/injection, schedule: Q01DX009 (ip), vehicle: saline): 94 % of control

CCCCCCCCCCCCCCCCCC(=O)NC1=C(Cl)C(=O)c2ccccc2C1=O
T/C [7]: 94 % of control | T/C [8]: 94 % of control | T/C [9]: 91 % of control
